In US10822376B2, “Biologically active peptides” (Baxalta Incorporated, priority 2008, dated 2020):
Where a SMILES comes first, the peptide text is derived from it. Where no end group is shown, it is not given here. [ ]: non-standard residue; d: D form.

Assays:
HERG channel [1] = target: T1, HERG channel (Homo sapiens, UniProt Q12809); type: cell-based
Protocol: It was tested at 10 μM and the data were compared with historical values determined at Cerep.

[2] = system: FVIII-inhibited human normal plasma; assay: Defined Fibrin Deposition Assay (clotting time); type: biochemical; conditions: for Activity in the Defined Fibrin Deposition Assay: summary
Protocol: Another suitable assay to determine procoagulant activity, and particularly FVIII equivalent activity or FVIII inhibitor bypassing activity, is the Defined Fibrin Deposition Assay as described below. […] This assay is particularly useful for determining coagulation FVIII activity because it is conducted in the presence of FVIII-depleted or inhibited plasma.
The Defined Fibrin Deposition Assay is performed as follows. FVIII activity of human citrated plasma (Baxter AG) is first inhibited by incubating (2 hours, 37° C.) 100 μl of human normal plasma with 25 μl heat inactivated anti-human FVIII plasma (300 BU/ml, 6 hours incubated at 56° C.) raised in goat. For each sample to be tested, 125 μl of this FVIII-inhibited human normal plasma is transferred to a pre-warmed cuvette and a 75 μl dilution of a test compound or FEIBA reference standard (Baxter AG) is added. The dilutions of test compound or FEIBA reference standard contain 50 mM imidazole, 100 mM NaCl and 10 mg/ml human serum albumin (Sigma) pH 7.4. As a trigger and for providing procoagulant surfaces 100 μl of a mix of human factor XIa (3.13 nM, Enzyme Research Laboratories) and phospholipid (PL) vesicles (Phosphatidylcholine/Phosphatidylserine 60%/40%, 30 μM; Avanti Polar Lipids) in 50 mM Imidazole, 100 mM NaCl, 10 mg/ml human serum albumin (Sigma) pH 7.4 is included. After incubating for three minutes at 37° C. the coagulation reaction is started by adding 100 μl of 25 mM CaCl2. Clot formation is monitored by a coagulometer (KC10A, Amelung, Germany). In brief, each cuvette rotates slowly above the magnetic detection device and contains a small magnetic metallic ball. Whilst the plasma components remain in solution, the ball sits at the bottom of the cuvette. Over time, a clot begins to form, such that the ball starts to rotate with the developing clot in the rotating cuvette. The “clotting time” is recorded and is defined as the time from addition of the CaCl2) to the time that the developing clot begins to rotate the metallic ball. A standard curve for FEIBA reference standard dilutions is calculated by linear regression of logarithmic FEIBA concentrations (x-axis) against the clotting time (y-axis). Based on the clotting time of each compound concentration FEIBA equivalent activities are calculated according to this standard curve.
Thus, where a concentration of 100 μM is given, the actual concentration in the final assay volume in 25 μM.
Various peptides were tested for the ability to stimulate fibrin deposition in the Defined Fibrin Deposition Assay as described in the specific description.

HERG channel [3] = target: T1, HERG channel; assay: HERG inhibition, patch clamp assay; conditions: patch clamp assay
Protocol: QT prolongation is assessed by HERG inhibition measured by patch-clamp techniques or Rb^+ efflux.
For rigorous characterization of HERG inhibition the patch clamp assay is applied (Cerep, France, Catalog ref. 900-36). […] The test compounds (10 mM stock solutions) were dissolved in dimethylsulfoxide (DMSO). The solutions at 1 μM contained 0.01% DMSO.

in vitro [4] = type: in vitro ADME; conditions: mouse, microsomes, pH 7.4
Protocol: Tests were used to determine the stability of compounds in microsomal preparations of human or animal origin. The microsomal stability is measured either in assays provided by Cerep (France, Catalog ref. 900-8h) or by the protocol described below. […] All wells must be carefully mixed to ensure a homogenous suspension before the next steps. 75 μl samples (duplicates) at t=0 minutes are taken for each compound. The plate is sealed and returned to the water bath/thermomixer for 30 minutes. The test compounds/standards are extracted by addition of 200 μl methanol, also including an internal standard. […] The samples are centrifuged at 1300 g for 10 min at 4° C. 200 μl of the supernatant is transferred into a 96-well plate with 10 μl DMSO per well. Compound stability is measured by HPLC-MS analysis (triplicates). The same procedure is repeated after 30 min. […] The signal to noise ratio for all peaks must be 5:1 or better. The ratio AUCanalyte: AUCstandard at the different timepoints must be used. The calculated stability for the control compound must fall in a certain range to validate the assay.

in vitro [5] = conditions: human, plasma
Protocol: Half-life of compounds in human or mouse plasma, or percentage of compound remaining after an incubation in human or mouse plasma, is determined as follows. In the experimental procedure, test compound concentrations are 5 μM, prepared from test compound stock solutions of 10 mM in DMSO. Propantheline is used as a standard. […] All of the samples are incubated in a water bath at 37° C. […] After a chosen duration of incubation (generally at t=60 min) each sample is mixed with a further 500 μl acetonitrile. The samples are mixed on a vortex mixer for 30 s and placed on ice for 10 min and collected for centrifugation. Samples are centrifuged at 20 000 g for 10 min at 4° C. 500 μl supernatant is transferred into a new 1.5 ml Eppendorf tube and an equal volume of acetonitrile is added. The sample is mixed again for 30 s using a vortex mixer. After a second centrifugation step (20 000 g, 10 min, 4° C.) 250 μl of the supernatant is transferred into HPLC glass vials for HPLC-MS analysis. Conditions for performing HPLC are as follows: Injection-volume is set to 20 μl. Temperature is set to 25° C. A linear gradient from 95:5 to 5:95 water:acetonitrile both containing 0:05% trifluoroacetic acid (TFA) (v/v) is applied at a flow rate of 0.3 ml/min for 10 min. The PDA-detector is scanning from 210-400 nm.

in vivo = conditions: C57BL/6, mouse
Protocol: Pharmacokinetics of compounds were tested in C57BI/6 mice or Wistar rats at 1-30 mg/kg. Compound concentrations in the blood stream were monitored at appropriate intervals using LC-MS.
Pharmacokinetic studies were performed to monitor compound concentrations in plasma following i.v., i.p. or s.c. administration. Studies were conducted in C57BI/6 mice weighing approximately 20 g.
Peptide concentrations in the plasma were analysed by HPLC-MS on a Surveyor HPLC combined with mass spectrometer LCQ classic or Advantage (all Thermo Electron, US) equipped with an ESI-source. All HPLC experiments were carried out on a Phenomenex C-18 Luna column (50 mm×2.0 mm, 5 μl injection volume) using a linear gradient: eluent A 0.05% trifluoracetic acid (TFA) in water; eluent B 0.05% TFA in acetonitrile; flow rate 0.3 mL/min in 10 min. […] The internal standard is prepared as a 0.1 μg/ml solution in 100% methanol. 50 μl plasma and 50 μl internal standard are mixed. 100 μl methanol is added and mixed thoroughly. After 30 min incubation on ice the vial is centrifuged for 15 min at 4° C. […] 150 μl of the supernatant are transferred into the HPLC vial

T1 sequence (Q12809 whole entry): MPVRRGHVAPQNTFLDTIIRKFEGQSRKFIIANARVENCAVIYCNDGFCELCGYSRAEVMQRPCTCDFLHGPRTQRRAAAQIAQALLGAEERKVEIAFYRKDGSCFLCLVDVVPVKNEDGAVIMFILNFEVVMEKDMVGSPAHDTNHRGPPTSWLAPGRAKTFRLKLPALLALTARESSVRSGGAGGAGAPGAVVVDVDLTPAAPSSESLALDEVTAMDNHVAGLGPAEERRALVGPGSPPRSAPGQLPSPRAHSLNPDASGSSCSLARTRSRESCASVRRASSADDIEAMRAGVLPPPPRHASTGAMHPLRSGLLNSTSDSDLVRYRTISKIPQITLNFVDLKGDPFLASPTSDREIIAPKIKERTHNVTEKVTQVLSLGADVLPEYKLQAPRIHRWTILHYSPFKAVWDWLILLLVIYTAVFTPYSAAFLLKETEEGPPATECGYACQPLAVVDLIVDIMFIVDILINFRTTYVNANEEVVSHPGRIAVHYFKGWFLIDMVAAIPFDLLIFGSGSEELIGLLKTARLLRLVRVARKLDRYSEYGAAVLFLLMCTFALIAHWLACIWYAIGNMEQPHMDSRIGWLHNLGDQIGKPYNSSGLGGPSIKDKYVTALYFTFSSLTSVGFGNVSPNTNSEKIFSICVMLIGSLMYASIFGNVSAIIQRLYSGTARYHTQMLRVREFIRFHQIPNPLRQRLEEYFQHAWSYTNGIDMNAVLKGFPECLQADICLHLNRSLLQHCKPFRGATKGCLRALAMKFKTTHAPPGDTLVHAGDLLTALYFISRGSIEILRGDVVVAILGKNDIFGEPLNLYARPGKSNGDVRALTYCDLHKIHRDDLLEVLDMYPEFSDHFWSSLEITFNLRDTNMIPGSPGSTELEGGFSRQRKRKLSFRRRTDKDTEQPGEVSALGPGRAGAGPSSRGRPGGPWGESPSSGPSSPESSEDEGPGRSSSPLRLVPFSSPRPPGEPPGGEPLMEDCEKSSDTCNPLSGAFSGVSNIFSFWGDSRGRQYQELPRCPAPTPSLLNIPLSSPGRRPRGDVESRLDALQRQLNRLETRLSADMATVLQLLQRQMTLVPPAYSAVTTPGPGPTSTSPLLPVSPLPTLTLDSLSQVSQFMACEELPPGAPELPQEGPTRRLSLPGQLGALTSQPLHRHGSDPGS

| Molecule | HERG inhibition Rb+ efflux (% Inhibition at 10 μM) (HERG channel [1]) [%] | FEIBA EU (from clotting time) ([2]; compound 12.5 μM) [mU/ml] | FEIBA EU (from clotting time) ([2]; compound 25 μM) [mU/ml] | Activity in the Defined Fibrin Deposition Assay [2] | Classification as HERG-channel blocker (potency ranking of Roche et al.) (HERG channel [3]) | remaining at 0.5 h, 1 μM (in vitro [4]) [%] | remaining at 0.5 h, 5 μM (in vitro [5]) [%] | level at 5 min (in vivo; ip) [ng/mL] | level at 20 min (in vivo; ip) [ng/mL] | level at 40 min (in vivo; ip) [ng/mL] | level at 1 h (in vivo; ip) [ng/mL] | level at 80 min (in vivo; ip) [ng/mL] | level at 100 min (in vivo; ip) [ng/mL] | level at 5 min (in vivo; iv) [ng/mL] | level at 10 min (in vivo; iv) [ng/mL] | level at 0.25 h (in vivo; iv) [ng/mL] | level at 20 min (in vivo; iv) [ng/mL] | level at 25 min (in vivo; iv) [ng/mL] | level at 0.5 h (in vivo; iv) [ng/mL] | other results |
| --- | --- | --- | --- | --- | --- | --- | --- | --- | --- | --- | --- | --- | --- | --- | --- | --- | --- | --- | --- | --- |
| CC[C@@H](C)[C@@H](NC(=O)[C@@H](CS)NC(C)=O)C(=O)N[C@H](CCSC)C(=O)N[C@H](Cc1ccccc1)C(=O)N[C@H](Cc1c[nH]c2ccccc12)C(=O)N[C@H](Cc1ccc(O)cc1)C(=O)N[C@H](CC(=O)O)C(=O)N[C@H](CCC(=O)O)C(=O)N[C@H](Cc1ccc(O)cc1)C(=O)N[C@H](CCC(=O)O)C(N)=O [Peptide B03, Ac-cimfwydeye-NH2] (Ac-[dC][dI][dM][dF][dW][dY][dD][dE][dY][dE]-NH2) | −2.1 | 291 | 325 | possess activity | high potency |  |  |  |  |  |  |  |  |  |  |  |  |  |  |  |
| Ac-PMKFDVWDLYFEIVW-NH2 [Peptide A02] | −3.3 |  |  |  |  | 45 | 84 | 273 | 315 | 289 | 612 | 99 | 176 | 11600 | 7260 | 3180 | 2740 | 1440 | 1310 |  |
| Ac-WDLYFEIVW-NH2 [Peptide A05] |  |  | 193 | possess activity | low-potency |  | 93 | 119 | 165 | 185 | 130 | 49 | 50 | 2600 | 2040 | 173 | 101 | 23 |  | FEIBA EU (from clotting time) ([2]; compound 10 μM): 119 mU/ml; FEIBA EU (from clotting time) ([2]; compound 50 μM): 219 mU/ml |
| Ac-WDLYFEIVWE [Peptide A06] | −6.4 | 232 | 168 | possess activity |  | 49 | 98 | 6440 | 7770 | 547 | 5800 | 4060 | 3020 | 50000 | 32600 | 21000 | 15600 | 11300 | 7790 |  |
| H-ERMEFDVWDLYFEIVW-NH2 [Peptide A09] | −1.6 |  |  |  |  | 23 | 67 | 34 | 67 | 60 | 129 | 74 | 68 | 350 | 184 | 109 | 119 | 64 | 80 |  |
